According to US20030104507A1, “Method for detection of ATP” (priority 2001, published 2003):

Legend:
LucPpy = molecular target: T1, LucPpy (Photinus pyralis, UniProt P08659); assay: Stability of reagent composition with LucPpy and detergent (RT, pH 7.0); type: biochemical; settings: for Average Relative Light Units / Percent of Luminescence Remaining: LucPpy
T1 construct: purchased Promega E170A
How it was run: (§1)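 Reagent with 50 μg/ml luciferase, luciferin, MgSO4, buffer and detergent at varying concentrations held at about 23° C; enzyme added just before first read. At timepoints, aliquots mixed 1:1 with media containing ATP and luminescence read immediately (0.5 s/well, triplicate); reaction half-lives and percent of original luminescence derived.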

LucPpe2m146 = assay: Stability of reagent composition with LucPpe2m146 and detergent (RT, pH 7.0); type: biochemical, Photuris pennsylvanica
How it was run: as §1

## CCCCCCCCCCCCOS(=O)(=O)[O-].[Na+] [SDS, Sodium dodecyl sulfate]
LucPpy; Common firefly luciferase (P. pyralis), conc. 0.050
  Half-life of Luminescence Activity: no activity
LucPpy; 0.002%, 0.75 min (head r32)
  Average Relative Light Units: 640.290 rlu
LucPpy; 0.002%, 0.75 min (times of Table I r32)
  Percent of Luminescence Remaining: 100.00%
LucPpy; 0.002%, 38 min (head r32)
  Average Relative Light Units: 190.860 rlu
LucPpy; 0.002%, 38 min (times of Table I r32)
  Percent of Luminescence Remaining: 29.81%
LucPpy; 0.002%, 70 min (head r32)
  Average Relative Light Units: 84.210 rlu
LucPpy; 0.002%, 70 min (times of Table I r32)
  Percent of Luminescence Remaining: 13.15%
LucPpy; 0.002%, 94 min (head r32)
  Average Relative Light Units: 47.210 rlu
LucPpy; 0.002%, 94 min (times of Table I r32)
  Percent of Luminescence Remaining: 7.37%
LucPpy; 0.002%, 122 min (head r32)
  Average Relative Light Units: 25.630 rlu
LucPpy; 0.002%, 122 min (times of Table I r32)
  Percent of Luminescence Remaining: 4.0%
LucPpy; 0.01%, 0.75 min (head r18)
  Average Relative Light Units: 0.175 rlu
LucPpy; 0.01%, 0.75 min (head r32)
  Average Relative Light Units: 17.584 rlu
LucPpy; 0.01%, 0.75 min (times of Table I r18)
  Percent of Luminescence Remaining: 100.00%
LucPpy; 0.01%, 10 min (head r18)
  Average Relative Light Units: 0.016 rlu
LucPpy; 0.01%, 10 min (times of Table I r18)
  Percent of Luminescence Remaining: 9.14%
LucPpy; 0.01%, 38 min (head r32)
  Average Relative Light Units: 0.001 rlu
LucPpy; 0.05%, 0.75 min (head r5)
  Average Relative Light Units: 0.007 rlu
LucPpy; 0.05%, 0.75 min (times of Table I r5)
  Percent of Luminescence Remaining: 100.00%
LucPpe2m146; LucPpe2m146, 0.002%, 1.0 min (head r67)
  Average Relative Light Units: 24265.83 rlu
LucPpe2m146; LucPpe2m146, 0.002%, 1.0 min (times of Table I r67)
  Percent of Luminescence Remaining: 100.00%
LucPpe2m146; LucPpe2m146, 0.002%, 34 min (head r67)
  Average Relative Light Units: 24213.97 rlu
LucPpe2m146; LucPpe2m146, 0.002%, 34 min (times of Table I r67)
  Percent of Luminescence Remaining: 99.79%
LucPpe2m146; LucPpe2m146, 0.002%, 65 min (head r67)
  Average Relative Light Units: 24725.73 rlu
LucPpe2m146; LucPpe2m146, 0.002%, 65 min (times of Table I r67)
  Percent of Luminescence Remaining: 101.90%
LucPpe2m146; LucPpe2m146, 0.002%, 115 min (head r67)
  Average Relative Light Units: 22654.87 rlu
LucPpe2m146; LucPpe2m146, 0.002%, 115 min (times of Table I r67)
  Percent of Luminescence Remaining: 93.36%
LucPpe2m146; LucPpe2m146, 0.002%, 175 min (head r67)
  Average Relative Light Units: 23856.73 rlu
LucPpe2m146; LucPpe2m146, 0.002%, 175 min (times of Table I r67)
  Percent of Luminescence Remaining: 98.31%
LucPpe2m146; LucPpe2m146, 0.002%, 238 min (head r67)
  Average Relative Light Units: 23425.5 rlu
LucPpe2m146; LucPpe2m146, 0.002%, 238 min (times of Table I r67)
  Percent of Luminescence Remaining: 96.54%
LucPpe2m146; LucPpe2m146, 0.002%, 286 min (head r67)
  Average Relative Light Units: 23275.6 rlu
LucPpe2m146; LucPpe2m146, 0.002%, 286 min (times of Table I r67)
  Percent of Luminescence Remaining: 95.92%
LucPpe2m146; LucPpe2m146, 0.01%, 1.0 min (head r54)
  Average Relative Light Units: 24.46 rlu
LucPpe2m146; LucPpe2m146, 0.01%, 1.0 min (times of Table I r54)
  Percent of Luminescence Remaining: 100.00%
LucPpe2m146; LucPpe2m146, 0.01%, 34 min (head r54)
  Average Relative Light Units: 27.85 rlu
LucPpe2m146; LucPpe2m146, 0.01%, 34 min (times of Table I r54)
  Percent of Luminescence Remaining: 113.85%
LucPpe2m146; LucPpe2m146, 0.01%, 65 min (head r54)
  Average Relative Light Units: 10.77 rlu
LucPpe2m146; LucPpe2m146, 0.01%, 65 min (times of Table I r54)
  Percent of Luminescence Remaining: 44.02%
LucPpe2m146; LucPpe2m146, 0.01%, 115 min (head r54)
  Average Relative Light Units: 6.45 rlu
LucPpe2m146; LucPpe2m146, 0.01%, 115 min (times of Table I r54)
  Percent of Luminescence Remaining: 26.38%
LucPpe2m146; LucPpe2m146, 0.01%, 175 min (head r54)
  Average Relative Light Units: 2.02 rlu
LucPpe2m146; LucPpe2m146, 0.01%, 175 min (times of Table I r54)
  Percent of Luminescence Remaining: 8.25%
LucPpe2m146; LucPpe2m146, 0.01%, 238 min (head r54)
  Average Relative Light Units: 2.44 rlu
LucPpe2m146; LucPpe2m146, 0.01%, 238 min (times of Table I r54)
  Percent of Luminescence Remaining: 9.97%
LucPpe2m146; LucPpe2m146, 0.01%, 286 min (head r54)
  Average Relative Light Units: 0.62 rlu
LucPpe2m146; LucPpe2m146, 0.01%, 286 min (times of Table I r54)
  Percent of Luminescence Remaining: 2.53%
LucPpe2m146; LucPpe2m146, 0.05%, 15 min (head r41)
  Average Relative Light Units: 0.018 rlu
LucPpe2m146; LucPpe2m146, 0.05%, 15 min (times of Table I r41)
  Percent of Luminescence Remaining: 100.00%
LucPpe2m146; LucPpe2m146, 0.05%, 72 min (head r41)
  Average Relative Light Units: 0.012 rlu
LucPpe2m146; LucPpe2m146, 0.05%, 72 min (times of Table I r41)
  Percent of Luminescence Remaining: 65.68%
LucPpe2m146; LucPpe2m146, 0.05%, 124 min (head r41)
  Average Relative Light Units: 0.001 rlu
LucPpe2m146; LucPpe2m146, 0.05%, 124 min (times of Table I r41)
  Percent of Luminescence Remaining: 6.09%
LucPpe2m146; LucPpe2m146, 0.05%, 190 min (head r41)
  Average Relative Light Units: 0.006 rlu
LucPpe2m146; LucPpe2m146, 0.05%, 190 min (times of Table I r41)
  Percent of Luminescence Remaining: 35.06%
LucPpe2m146; LucPpe2m146, 0.05%, 251 min (head r41)
  Average Relative Light Units: 0.016 rlu
LucPpe2m146; LucPpe2m146, 0.05%, 251 min (times of Table I r41)
  Percent of Luminescence Remaining: 87.64%
